In ChEMBL document CHEMBL5303711, “ECBD screening data for assay EOS300108” (2023):
Counter-ions that a name gives are not always drawn. The source made the active and inactive calls. No rule for the calls is given here. Residues, ends and D or L forms follow the SMILES beside them. *: point of attachment. Cbz = O=C(OCc1ccccc1)*

Test: Cytotoxicity activity against human HepG2 cells assessed by CellTiter-Glo luminescent cell viability assay.
Format: toxicity, cell-based
Design: assay stage confirmatory assay, source tissue liver
Settings: HepG2 cells, read-out: IC50 relative
For `N#Cc1ccc(CNC(=O)CCCCCN2CCN(c3ccccc3-c3ccccc3)CC2)cc1`, the CC50 was 12.3 µM (active). With `C[C@@H](O[C@H]1OCCN(Cc2n[nH]c(=O)[nH]2)[C@H]1c1ccc(F)cc1)c1cc(C(F)(F)F)cc(C(F)(F)F)c1` [APREPITANT] the CC50 was 14.8 µM (inactive). In the case of `CCC(CC)C(c1ccc(Nc2nc3ccccc3s2)cc1)n1cncn1` (centres undefined) [TALAROZOLE], the CC50 is reported as 14.4 µM (inactive). In the case of `CS(=O)(=O)N1CCc2ccc(NC(=O)Nc3ccc(Br)cc3)cc21`, the CC50 is reported as 3.2 µM (inactive). In the case of `CNc1nc(-c2ccc3c(N)n[nH]c3c2)cc(N2C[C@@H](C(=O)NC3CCCCC3)CC[C@H]2C)n1`, the CC50 is reported as 50 µM (inactive). With `OCc1cc(C(O)CNCCCCCCOCCCCc2ccccc2)ccc1O` (centres undefined) [SALMETEROL] the CC50 was 6.6 µM (active). With `CCC[C@]1(C)NC(=O)N(Cc2cc(-c3ccccc3)on2)C1=O` the CC50 was 2.4 µM (active). With `CCn1cc(-c2ccnc3[nH]c(-c4cccc(CN(C)C)c4)cc23)c(-c2ccc(NC(=O)N(C)C)cc2)n1` [GSK-1070916] the CC50 was 2.8 µM (active). For `CS(=O)(=O)CCNCc1ccc(-c2ccc3ncnc(Nc4ccc(OCc5cccc(F)c5)c(Cl)c4)c3c2)o1`, the CC50 was 6.1 µM (active). For `CSc1ccc(NC(=O)Nc2ccc3c(c2)N(S(C)(=O)=O)CC3)cc1`, the CC50 was 8.1 µM (inactive). For `C[C@@H](c1ccccc1F)N(Cn1ncc(Cl)c(Cl)c1=O)C1CC1`, the CC50 was 11.4 µM (active). In the case of `COCCN1COc2c(cc(Cl)c3cccnc23)C1`, the CC50 is reported as 7.5 µM (active). With `O=C(Nc1nnc(-c2ccccc2)o1)c1cccc(S(=O)(=O)N2CCOCC2)c1` the CC50 was 8.9 µM (active). With `CCOc1ccc(S(=O)(=O)NCC2(C)CCNCC2)c2ccccc12` the CC50 was 10 µM (active). With `COc1ncc(-c2ccc3nccc(-c4ccnnc4)c3c2)cc1NS(=O)(=O)c1ccc(F)cc1F` [OMIPALISIB] the CC50 was 0.1 µM (active). For `CC(C)(C)C(=O)/C(=C/c1cccc([N+](=O)[O-])c1)n1cncn1`, the CC50 was 0.6 µM (active). In the case of `Nc1ccc(O)c2ncccc12`, the CC50 is reported as 1.4 µM (active). For `CCN1/C(=C/C(C)=C/c2sc3ccccc3[n+]2CC)Sc2ccccc21`, the CC50 was 0.4 µM (active). In the case of `CC(C)[C@H](NC1CCN(C(=O)c2ccco2)CC1)c1ccccc1`, the CC50 is reported as 10.6 µM (inactive). With `O=C(CN1C(=O)COc2ccc(S(=O)(=O)N3CCCCCC3)cc21)NCc1ccccc1` the CC50 was 50 µM (inactive). In the case of `O=C(Nc1nc2ccccc2[nH]1)c1ccc(-n2cccn2)cc1`, the CC50 is reported as 48.2 µM (inactive). In the case of `c1ccc2c(-c3cnn4cc(-c5ccc(N6CCNCC6)cc5)cnc34)ccnc2c1`, the CC50 is reported as 0.5 µM (active). With `NC(=O)Nc1cc(-c2cccc(F)c2)sc1C(=O)N[C@H]1CCCNC1` [AZD-7762] the CC50 was 0.9 µM (active). With `CS(=O)(=O)c1ncc(Cl)c(C(=O)Nc2ccc(Cl)cc2)n1` the CC50 was 4.1 µM (active). With `Cc1cc(C(=O)Nc2nc3cccc(Cl)c3n2[C@@H]2CCCCN(C(=O)/C=C/CN(C)C)C2)ccn1` [NAZARTINIB] the CC50 was 6.4 µM (active). In the case of `CNc1nc(Nc2cccc(NC(C)=O)c2)nc2ccccc12`, the CC50 is reported as 5.2 µM (active). For `O=C(c1ccncc1)N1CCC2(CC1)CC(Cc1nc(-c3ccncc3)no1)CCO2` (centres undefined), the CC50 was 5.2 µM (active). With `CC(C)(C)c1cc(C(C)(C)C)c(NC(=O)c2c[nH]c3ccccc3c2=O)cc1O` [IVACAFTOR] the CC50 was 7.5 µM (active). In the case of `Brc1c(Br)c(Br)c2[nH]cnc2c1Br`, the CC50 is reported as 7.4 µM (active). For `CCn1cc(-c2cccc(C(F)(F)F)c2)c2sc(C(=N)NC3CCS(=O)(=O)CC3)cc2c1=O`, the CC50 was 11.1 µM (active). With `CN(C)CCNC(=O)Cn1c(Cc2ccccc2)nn(-c2ccc(Cl)cc2)c1=O` the CC50 was 11.7 µM (active). With `OCCCNc1cc(-c2ccnc(Nc3cccc(Cl)c3)n2)ccn1` the CC50 was 1.4 µM (active). With `Nc1ncnc2c1c(I)cn2[C@@H]1O[C@H](CO)[C@@H](O)[C@H]1O` [IODOTUBERCIDIN] the CC50 was 0.4 µM (active). In the case of `Cc1c(C(=O)c2cccc3ccccc23)c2cccc3c2n1[C@H](CN1CCOCC1)CO3`, the CC50 is reported as 3.2 µM (active). For `CCCCCCCC(=O)N[C@H](CN1CCCC1)[C@H](O)c1ccc2c(c1)OCCO2`, the CC50 was 15.7 µM (inactive). With `CN1CCc2nc(C(=O)c3nc4c(s3)CN(C)CC4)sc2C1` the CC50 was 0.5 µM (active). For `Cc1cc(OCCOCCN2CCN(C)CC2)c(Cl)c(C)c1Cl`, the CC50 was 5.3 µM (active). With `CCOc1ccc(S(=O)(=O)Nc2ccc3c(c2)N(C(C)=O)CCC3)cc1` the CC50 was 6.4 µM (active). With `N#Cc1c(N)[nH]c2cc(Br)ccc12` the CC50 was 18 µM (inactive). With `O=C(NC1(c2ccccc2)CC1)c1c(CN2CCC(N3CCCCC3)CC2)c(-c2cccc(C(F)(F)F)c2)nc2cc(Br)ccc12` the CC50 was 2.6 µM (active). In the case of `CC(=O)c1ccc(NC(=O)c2cccc3cccnc23)cc1`, the CC50 is reported as 0.9 µM (active). For `N[C@@H](Cc1ccccc1)C(=O)N1C/C(=C\c2ccc(Cl)c(Cl)c2)C(=O)/C(=C/c2ccc(Cl)c(Cl)c2)C1`, the CC50 was 7.9 µM (active). With `CNC(=O)c1cccc(-c2ccc3c(N4CCOC[C@@H]4C)nc(N4CCOC[C@@H]4C)nc3n2)c1` [VISTUSERTIB] the CC50 was 0.2 µM (active). With `COc1ccc(OC)c([N+]2=C3SCCCN3C(O)(c3ccc(C)cc3)C2)c1` (centres undefined) the CC50 was 11.6 µM (active). For `Cc1ccc(C(=O)Nc2ccc(Oc3cc4cnn(C)c4cc3-c3cn[nH]c3)c(F)c2)c(=O)n1-c1ccc(F)cc1` [MERESTINIB], the CC50 was 2.9 µM (active). In the case of `CC(C)c1ccc(CN(CCCN(C)C)CCCN(C)C)cc1`, the CC50 is reported as 8.8 µM (active). In the case of `Cc1cc(NC(=O)N2CC=C(c3c[nH]c4ncccc34)CC2)no1`, the CC50 is reported as 9.2 µM (inactive). For `Cc1ccc(C)c(N2CCN(CCCNC(=O)C3CCN(c4ccc5nnc(C)n5n4)CC3)CC2)c1`, the CC50 was 8.7 µM (active). With `O=S(=O)(Nc1ccc(Cl)c2cccnc12)c1c[nH]c2ncccc12` the CC50 was 5.5 µM (inactive). For `O=c1ccc2cc(S(=O)(=O)Nc3cccc4cccnc34)ccc2o1`, the CC50 was 3.5 µM (active). With `CC(C)CN1CCN(Cc2nc(Cn3ccn4nc(-c5ccccc5)cc4c3=O)no2)CC1` the CC50 was 13.6 µM (active). For `C[C@@H]1Oc2ccccc2N(CC(=O)Nc2nc(-c3ccccn3)cs2)C1=O`, the CC50 was 3.3 µM (active). With `CCCCOc1ccc(C(=O)CCN2CCCCC2)cc1` [DYCLONINE HYDROCHLORIDE] the CC50 was 9.9 µM (active). In the case of `COC(=O)[C@H]1[C@H]2C[C@@H]3c4[nH]c5cc(OC)ccc5c4CCN3C[C@H]2C[C@@H](OC(=O)c2cc(OC)c(OC)c(OC)c2)[C@@H]1OC` [RESERPINE], the CC50 is reported as 11.8 µM (active). For `CCOc1ccc(NC(=O)C2CCN(S(=O)(=O)c3ccc4c(c3)OCCCO4)CC2)cc1`, the CC50 was 50 µM (inactive). In the case of `CN1CCC[C@@H]1CCO[C@](C)(c1ccccc1)c1ccc(Cl)cc1` [CLEMASTINE FUMARATE], the CC50 is reported as 5.4 µM (active). In the case of `C[C@]12CC[C@H](O)CC1=CC[C@@H]1[C@@H]2CC[C@]2(C)C(n3cnc4ccccc43)=CC[C@@H]12` [GALETERONE], the CC50 is reported as 10.4 µM (active). With `COc1cc2c(NC3CCN(CC4CCCCC4)CC3)nc(N3CCCN(C(C)C)CC3)nc2cc1OCCCN1CCCCC1` the CC50 was 1.1 µM (active). In the case of `COc1cc2c(cc1-c1c(C)noc1C)ncc1[nH]c(=O)n([C@H](C)c3ccccn3)c12`, the CC50 is reported as 1.4 µM (active). With `Nc1ccnc2ccc(Oc3ccccc3)cc12` the CC50 was 11.2 µM (active). In the case of `O[C@H]1C[C@@H](c2cc(N3CCC(Oc4ccccc4Cl)CC3)ncn2)C1`, the CC50 is reported as 5.6 µM (active). For `Nc1nc(NCCNc2ncc(-n3ccnc3)c(-c3ccc(Cl)cc3Cl)n2)ccc1[N+](=O)[O-]`, the CC50 was 50 µM (inactive). In the case of `COc1ccc(C(=O)N[C@@H]2CN(Cc3ccccc3)C[C@H]2CN(C)C)cc1F`, the CC50 is reported as 12.1 µM (active). For `COc1ccc(C(=O)Nc2ccc(OC3CCN(C)CC3)cc2)c(OC)n1`, the CC50 was 13.4 µM (active). For `CC(C)Oc1ccc(-c2nc(-c3cccc4c3CC[C@@H]4NCCO)no2)cc1C#N` [OZANIMOD], the CC50 was 3.4 µM (active). For `Cc1nc(NC(=O)c2ccc(C)c(Br)c2)n(C)n1`, the CC50 was 11.7 µM (active). With `COc1cc2ncnc(Nc3cccc(Cl)c3)c2cc1OC` [TYRPHOSTIN AG-1478] the CC50 was 8.3 µM (active). In the case of `CC(C)c1ccc(NC(=O)c2ccc(N3CCOCC3)nc2)cc1`, the CC50 is reported as 10.5 µM (inactive). For `Cc1cc2c(N3CC[C@@]4(C3)NC(=O)N(C)C4=O)ccnc2cc1Cl`, the CC50 was 8.6 µM (active). In the case of `CN1CCC(c2c[nH]c3ccc(NC(=O)c4ccc(F)cc4)cc23)CC1`, the CC50 is reported as 14.2 µM (inactive). For `CCOc1cccc(N2CCN(c3ncnc4c(F)cccc34)CC2)n1`, the CC50 was 8.3 µM (active). In the case of `CC(C)C[C@@H](C=O)NC(=O)[C@H](CC(C)C)NC(=O)[C@H](CC(C)C)NC(=O)OCc1ccccc1` [MG-132] (Cbz-Leu-Leu-Leu-aldehyde), the CC50 is reported as 0.5 µM (active). For `COc1ccc(C)cc1NC(=O)N1CCC(n2cnc3cc(F)ccc3c2=O)CC1`, the CC50 was 9.9 µM (active). For `Cc1cnc(Nc2ccc(F)cc2Cl)nc1-c1c[nH]c(C(=O)N[C@H](CO)c2cccc(Cl)c2)c1`, the CC50 was 0.7 µM (active). In the case of `O=[N+]([O-])c1ccc(NN=Cc2sc(N3CCOCC3)nc2-c2ccccc2)c(S(=O)(=O)Nc2ccccc2Cl)c1`, the CC50 is reported as 2.7 µM (active). With `CCC(=O)Nc1ccc(C(=O)Cn2ncc(Cl)c(Cl)c2=O)cc1` the CC50 was 3.3 µM (active). For `CCc1ccc(-c2cc3c(=O)n(CC(=O)NCCCN4CCN(CC)CC4)nc(C)n3n2)cc1`, the CC50 was 25.5 µM (inactive). For `CC1(C)CCCN(c2ccnc(N[C@H]3CCCOCC3)n2)C1`, the CC50 was 8 µM (active). In the case of `CN(C)C(=O)CO[C@@H]1COCC[C@H]1NC(=O)c1cn(C)c2ccccc12`, the CC50 is reported as 6.3 µM (active). For `COCCN1CCN(Cc2ccc(-c3n[nH]c4c3C(=O)c3c(NC(=O)NN5CCOCC5)cccc3-4)cc2)CC1` [RGB-286638], the CC50 was 0.2 µM (active). In the case of `CO[C@H]1C[C@@H]2CC[C@@H](C)[C@@](O)(O2)C(=O)C(=O)N2CCCC[C@H]2C(=O)O[C@H]([C@H](C)C[C@@H]2CC[C@@H](O)[C@H](OC)C2)CC(=O)[C@H](C)/C=C(\C)[C@@H](O)[C@@H](OC)C(=O)[C@H](C)C[C@H](C)/C=C/C=C/C=C/1C` [SIROLIMUS], the CC50 is reported as 17.5 µM (inactive). With `O=C(NCCc1ccco1)c1cc2ccccc2cc1O` the CC50 was 8.5 µM (active). For `O=S(=O)(c1ccccc1)N1CCN(c2ccc(Nc3ccncc3)nn2)CC1`, the CC50 was 16.9 µM (inactive). With `O=C(NOC[C@H](O)CO)c1ccc(F)c(F)c1Nc1ccc(I)cc1F` [MIRDAMETINIB] the CC50 was < 0.1 µM (active).
